Experimental data reported in ChEMBL document CHEMBL1141231, “Discovery and development of a new class of potent, selective, orally active oxytocin receptor antagonists” (J Med Chem, 2005).
pKi: −log10 of the molar value.

Molecular target: T1, Vasopressin V1a receptor (Homo sapiens, UniProt P37288)
Experiment: not given
Settings: HEK293-EBNA, at 10 µM
Target sequence in this assay (P37288 whole entry, looked up): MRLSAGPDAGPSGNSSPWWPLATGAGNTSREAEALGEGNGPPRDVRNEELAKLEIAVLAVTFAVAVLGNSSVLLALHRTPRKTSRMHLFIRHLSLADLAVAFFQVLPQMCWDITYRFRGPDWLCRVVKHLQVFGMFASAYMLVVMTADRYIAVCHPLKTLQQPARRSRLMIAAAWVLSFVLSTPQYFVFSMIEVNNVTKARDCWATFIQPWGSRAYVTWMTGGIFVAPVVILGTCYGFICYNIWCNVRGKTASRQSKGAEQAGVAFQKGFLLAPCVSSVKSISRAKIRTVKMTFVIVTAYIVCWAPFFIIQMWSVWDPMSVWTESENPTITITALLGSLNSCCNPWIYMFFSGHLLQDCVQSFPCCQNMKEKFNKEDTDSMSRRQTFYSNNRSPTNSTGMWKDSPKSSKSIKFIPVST

inhibition	Structure (SMILES)
< 50%	Cc1ccc(N(CC(=O)N/N=C/c2ccccc2O)S(=O)(=O)c2ccccc2)cc1
< 50%	O=C(CN(c1ccc(Cl)cc1)S(=O)(=O)c1ccccc1)N/N=C/c1ccccc1O
< 50%	O=C(CN(c1ccccc1)S(=O)(=O)c1ccccc1)N/N=C1\C(=O)Nc2ccccc21

Structure (SMILES)	inhibition
COc1ccc(S(=O)(=O)N(CC(=O)Nc2cccc(Cl)c2C)c2ccc(C)cc2)cc1OC	< 50%

Molecular target: T1, Vasopressin V1a receptor
Experiment: Displacement of [125I]LVA antagonist from human vasopressin 1a receptor expressed in HEK293-EBNA cells
Format: cell-based
Settings: not given
Target sequence in this assay (P37288 whole entry): as the sequence (P37288 whole entry, looked up) above

pKi	Structure (SMILES)
< 5.00	Cc1ccc(N(CC(=O)NN=C2C(=O)Nc3ccccc32)S(=O)(=O)c2cccc3ccccc23)cc1
6.19	CCOc1ccc(S(=O)(=O)N(CC(=O)N/N=C/c2ccccc2O)c2ccc(Cl)cc2)cc1
< 5.00	CCOc1ccc(S(=O)(=O)N(c2ccc(C)cc2)C(C)C(=O)N/N=C2\C(=O)Nc3ccccc32)cc1 (stereo unspecified)
5.67	CCCc1ccc(S(=O)(=O)N(CC(=O)N/N=C2\C(=O)Nc3ccccc32)c2ccc(Cl)cc2)cc1
6.36	COc1ccc(S(=O)(=O)N(CC(=O)N/N=C2/C(=O)Nc3ccccc32)c2ccc(C)cc2)cc1
6.49	Cc1ccc(N(CC(=O)N2CCc3ccccc3C2)S(=O)(=O)c2ccccc2)cc1
5.73	CCOc1ccc(S(=O)(=O)N(CC(=O)N/N=C/c2ccccn2)c2ccc(Cl)cc2)cc1
< 5.00	CCOc1ccc(S(=O)(=O)N(CC(=O)N/N=C(\C)c2ccc3ccccc3c2O)c2ccc(C)cc2)cc1
6.24	CCOc1ccc(S(=O)(=O)N(CC(=O)N2Cc3ccccc3CC2C(N)=O)c2ccc(OC)cc2)cc1 (stereo unspecified)
6.33	CCOc1ccc(S(=O)(=O)N(CC(=O)N/N=C2\C(=O)Nc3ccccc32)c2ccc(Cl)cc2)cc1
< 5.00	Cc1ccc(N(CC(=O)/N=N/c2c(O)[nH]c3ccccc23)S(=O)(=O)c2ccc(-c3ccccc3)cc2)cc1
6.29	O=C(CN(c1ccc(Cl)cc1)S(=O)(=O)c1cccs1)N/N=C1\C(=O)Nc2ccccc21
< 5.00	CCOc1ccc(S(=O)(=O)N(CC(=O)/N=N/c2c(O)[nH]c3ccccc23)c2ccccc2)cc1
< 5.00	CCOc1ccc(S(=O)(=O)N(CC(=O)N/N=C/c2ncc[nH]2)c2ccc(Cl)cc2)cc1
< 5.00	CCC(C)(C)c1ccc(S(=O)(=O)N(CC(=O)N/N=C2\C(=O)Nc3ccccc32)c2ccc(Cl)cc2)cc1
5.74	CCOc1ccc(S(=O)(=O)N(CC(=O)N2Cc3ccccc3CC2CC(N)=O)c2ccc(C)cc2)cc1 (stereo unspecified)
< 5.00	Cc1c(Cl)cccc1NC(=O)CN(c1ccc(Cl)cc1)S(=O)(=O)c1ccccc1
< 5.00	CCOc1ccc(N(CC(=O)Nc2cccc(Cl)c2C)S(=O)(=O)c2ccccc2)cc1
< 5.00	CCOc1ccc(S(=O)(=O)N(c2ccc(C)cc2)C(CO)C(=O)N/N=C2\C(=O)Nc3ccccc32)cc1 (stereo unspecified)
< 5.00	CCOc1ccc(S(=O)(=O)N(CC(=O)/N=N/c2c(O)[nH]c3ccc(I)cc23)c2ccccc2)cc1
5.40	CCCCOc1ccc(S(=O)(=O)N(CC(=O)N/N=C2\C(=O)Nc3ccccc32)c2ccc(Cl)cc2)cc1
< 5.00	Cc1ccc(N(CC(=O)Nc2cccc(Cl)c2C)S(=O)(=O)c2ccccc2)cc1
5.31	CC(C)(C)c1ccc(S(=O)(=O)N(CC(=O)N/N=C2/C(=O)Nc3ccccc32)c2ccc(Cl)cc2)cc1
6.21	O=C(CN(c1ccc(Cl)cc1)S(=O)(=O)c1ccccc1)N/N=C1\C(=O)Nc2ccccc21
< 5.00	COc1ccc(-c2ccc(S(=O)(=O)N(CC(=O)/N=N/c3c(O)[nH]c4ccccc34)c3ccc(C)cc3)cc2)cc1
< 5.00	CCOc1ccc(S(=O)(=O)N(CC(=O)N/N=C(\C)c2ccc(O)cc2O)c2ccc(C)cc2)cc1

Molecular target: T2, Oxytocin receptor (Homo sapiens, UniProt P30559)
T2 sequence (P30559 whole entry): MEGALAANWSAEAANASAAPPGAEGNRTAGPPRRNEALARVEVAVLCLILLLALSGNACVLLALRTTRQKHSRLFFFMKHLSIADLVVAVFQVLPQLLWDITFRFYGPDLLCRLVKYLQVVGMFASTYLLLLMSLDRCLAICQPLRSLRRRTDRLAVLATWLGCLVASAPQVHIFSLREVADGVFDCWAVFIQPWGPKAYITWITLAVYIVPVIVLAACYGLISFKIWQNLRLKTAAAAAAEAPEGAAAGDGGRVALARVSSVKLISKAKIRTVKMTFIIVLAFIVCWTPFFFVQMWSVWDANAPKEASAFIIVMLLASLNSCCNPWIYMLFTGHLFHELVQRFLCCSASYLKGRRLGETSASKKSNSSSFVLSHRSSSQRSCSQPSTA
Experiment: biochemical
Format: cell-based, HEK293-EBNA
Settings: not given

pKi	Structure (SMILES)
6.76	Cc1ccc(N(CC(=O)NN=C2C(=O)Nc3ccccc32)S(=O)(=O)c2cccc3ccccc23)cc1
7.17	Cc1ccc(N(CC(=O)N/N=C/c2ccccc2O)S(=O)(=O)c2ccccc2)cc1
7.17	O=C(CN(c1ccc(Cl)cc1)S(=O)(=O)c1ccccc1)N/N=C/c1ccccc1O
7.82	CCOc1ccc(S(=O)(=O)N(CC(=O)N/N=C/c2ccccc2O)c2ccc(Cl)cc2)cc1
6.35	CCOc1ccc(S(=O)(=O)N(c2ccc(C)cc2)C(C)C(=O)N/N=C2\C(=O)Nc3ccccc32)cc1 (stereo unspecified)
7.44	CCCc1ccc(S(=O)(=O)N(CC(=O)N/N=C2\C(=O)Nc3ccccc32)c2ccc(Cl)cc2)cc1
7.70	COc1ccc(S(=O)(=O)N(CC(=O)N/N=C2/C(=O)Nc3ccccc32)c2ccc(C)cc2)cc1
5.56	CCOc1ccc(S(=O)(=O)N(CC(=O)N/N=C/c2ccccn2)c2ccc(Cl)cc2)cc1
< 5.00	CCOc1ccc(S(=O)(=O)N(CC(=O)N/N=C(\C)c2ccc3ccccc3c2O)c2ccc(C)cc2)cc1
6.49	CCOc1ccc(S(=O)(=O)N(CC(=O)N2Cc3ccccc3CC2C(N)=O)c2ccc(OC)cc2)cc1 (stereo unspecified)
8.41	CCOc1ccc(S(=O)(=O)N(CC(=O)N/N=C2\C(=O)Nc3ccccc32)c2ccc(Cl)cc2)cc1
6.98	Cc1ccc(N(CC(=O)/N=N/c2c(O)[nH]c3ccccc23)S(=O)(=O)c2ccc(-c3ccccc3)cc2)cc1
7.43	O=C(CN(c1ccc(Cl)cc1)S(=O)(=O)c1cccs1)N/N=C1\C(=O)Nc2ccccc21
7.44	CCOc1ccc(S(=O)(=O)N(CC(=O)/N=N/c2c(O)[nH]c3ccccc23)c2ccccc2)cc1
7.05	O=C(CN(c1ccccc1)S(=O)(=O)c1ccccc1)N/N=C1\C(=O)Nc2ccccc21
< 5.00	CCOc1ccc(S(=O)(=O)N(CC(=O)N/N=C/c2ncc[nH]2)c2ccc(Cl)cc2)cc1
5.76	CCC(C)(C)c1ccc(S(=O)(=O)N(CC(=O)N/N=C2\C(=O)Nc3ccccc32)c2ccc(Cl)cc2)cc1
6.80	Cc1c(Cl)cccc1NC(=O)CN(c1ccc(Cl)cc1)S(=O)(=O)c1ccccc1
< 5.00	CCOc1ccc(N(CC(=O)Nc2cccc(Cl)c2C)S(=O)(=O)c2ccccc2)cc1
5.86	CCOc1ccc(S(=O)(=O)N(c2ccc(C)cc2)C(CO)C(=O)N/N=C2\C(=O)Nc3ccccc32)cc1 (stereo unspecified)
< 5.00	CCOc1ccc(S(=O)(=O)N(CC(=O)/N=N/c2c(O)[nH]c3ccc(I)cc23)c2ccccc2)cc1
7.74	CCCCOc1ccc(S(=O)(=O)N(CC(=O)N/N=C2\C(=O)Nc3ccccc32)c2ccc(Cl)cc2)cc1
7.03	Cc1ccc(N(CC(=O)Nc2cccc(Cl)c2C)S(=O)(=O)c2ccccc2)cc1
7.21	CC(C)(C)c1ccc(S(=O)(=O)N(CC(=O)N/N=C2/C(=O)Nc3ccccc32)c2ccc(Cl)cc2)cc1
8.06	O=C(CN(c1ccc(Cl)cc1)S(=O)(=O)c1ccccc1)N/N=C1\C(=O)Nc2ccccc21
< 6.67	COc1ccc(-c2ccc(S(=O)(=O)N(CC(=O)/N=N/c3c(O)[nH]c4ccccc34)c3ccc(C)cc3)cc2)cc1
< 5.00	CCOc1ccc(S(=O)(=O)N(CC(=O)N/N=C(\C)c2ccc(O)cc2O)c2ccc(C)cc2)cc1

Structure (SMILES)	pKi
COc1ccc(S(=O)(=O)N(CC(=O)Nc2cccc(Cl)c2C)c2ccc(C)cc2)cc1OC	6.21

Species: Homo sapiens
Experiment: Selectivity for human vasopressin V1a receptor over human oxytocin receptor
Settings: not given

Ratio Ki	Ratio ki	Structure (SMILES)
43	–	CCOc1ccc(S(=O)(=O)N(CC(=O)N/N=C/c2ccccc2O)c2ccc(Cl)cc2)cc1
60	–	CCCc1ccc(S(=O)(=O)N(CC(=O)N/N=C2\C(=O)Nc3ccccc32)c2ccc(Cl)cc2)cc1
0.67	–	CCOc1ccc(S(=O)(=O)N(CC(=O)N/N=C/c2ccccn2)c2ccc(Cl)cc2)cc1
–	1.8	CCOc1ccc(S(=O)(=O)N(CC(=O)N2Cc3ccccc3CC2C(N)=O)c2ccc(OC)cc2)cc1 (stereo unspecified)
120	–	CCOc1ccc(S(=O)(=O)N(CC(=O)N/N=C2\C(=O)Nc3ccccc32)c2ccc(Cl)cc2)cc1
> 96	–	Cc1ccc(N(CC(=O)/N=N/c2c(O)[nH]c3ccccc23)S(=O)(=O)c2ccc(-c3ccccc3)cc2)cc1
14	–	O=C(CN(c1ccc(Cl)cc1)S(=O)(=O)c1cccs1)N/N=C1\C(=O)Nc2ccccc21
> 275	–	CCOc1ccc(S(=O)(=O)N(CC(=O)/N=N/c2c(O)[nH]c3ccccc23)c2ccccc2)cc1
3.6	–	CCOc1ccc(S(=O)(=O)N(CC(=O)N2Cc3ccccc3CC2CC(N)=O)c2ccc(C)cc2)cc1 (stereo unspecified)
230	–	CCCCOc1ccc(S(=O)(=O)N(CC(=O)N/N=C2\C(=O)Nc3ccccc32)c2ccc(Cl)cc2)cc1
80	–	CC(C)(C)c1ccc(S(=O)(=O)N(CC(=O)N/N=C2/C(=O)Nc3ccccc32)c2ccc(Cl)cc2)cc1
70	–	O=C(CN(c1ccc(Cl)cc1)S(=O)(=O)c1ccccc1)N/N=C1\C(=O)Nc2ccccc21
> 47	–	COc1ccc(-c2ccc(S(=O)(=O)N(CC(=O)/N=N/c3c(O)[nH]c4ccccc34)c3ccc(C)cc3)cc2)cc1
